Test results published in patent publication US20210369853A1, “TARGETED PROTEASE DEGRADATION PLATFORM” (EUBULUS BIOTHERAPEUTICS INC., priority 2018, published 2021).

These molecules were tested on Human Monocytic Leukemia MV4-11 (assay: Cell proliferation experiment (Alarm blue, 72 h, EC50)). Details: Homo sapiens, MV4-11, MV4;11 cells.
Type: cell-based
Experimental: (2.1) Cell Proliferation Experiment:
Reagents: RPMI-1640 medium, McCoy's 5A medium, IMDM medium, MEM medium, L-15 medium, fetal bovine serum, Penicillin-Streptomycin double antibody, trypsin, etc., 2-mercaptoethanol, NEAA, pyruvate, etc.
The cells were cultured in conventional ways, and the cells should be passed at least for at least 2 generations before plating. Cells at the logarithmic growth phase are collected, prepared into single cell suspensions and counted. The concentration of cells was adjusted to the desired concentration, and cells were inoculated into a 96-well cell culture plate at 100 μl per well. 100 μL of complete medium of the test compound were added to each well, set up 2 duplicates for each concentration, and diluted with a 5-fold gradient, and continue to culture for 72 h. All cells were subjected to EC50 test for corresponding samples.
The fluorescence intensity of each well was detected using the Alarm blue method, and EC50 was calculated.
EC50 was calculated according to the following formula:
Y=Max+(Min−Max)/[1+(X/EC50)×Slope]
wherein Min, Max and Slope represent the minimum, maximum and slope respectively.

Row | EC50 [nM] | SMILES
1 | 100 to 1000 | Cc1ncsc1-c1ccc(CNC(=O)[C@@H]2C[C@@H](O)CN2C(=O)[C@@H](NC(=O)CCCNC(=O)c2ccc(Nc3ncc4c(n3)-c3ccc(Cl)cc3C(c3c(F)cccc3F)=NC4)cc2)C(C)(C)C)cc1 [UB-180505]
2 | 100 to 1000 | Cc1ncsc1-c1ccc(CNC(=O)[C@@H]2C[C@@H](O)CN2C(=O)[C@@H](NC(=O)COCCCNC(=O)c2ccc(Nc3ncc4c(n3)-c3ccc(Cl)cc3C(c3c(F)cccc3F)=NC4)cc2)C(C)(C)C)cc1 [UB-180506]
3 | 10 to 100 | Cc1ncsc1-c1ccc(CNC(=O)[C@@H]2C[C@@H](O)CN2C(=O)[C@@H](NC(=O)COCCOCCOCCNC(=O)c2ccc(Nc3ncc4c(n3)-c3ccc(Cl)cc3C(c3c(F)cccc3F)=NC4)cc2)C(C)(C)C)cc1 [UB-180514]
4 | > 1000 | Cc1ncsc1-c1ccc(CNC(=O)[C@@H]2C[C@@H](O)CN2C(=O)[C@@H](NC(=O)COCCOCCOCCOCCNC(=O)c2ccc(Nc3ncc4c(n3)-c3ccc(Cl)cc3C(c3c(F)cccc3F)=NC4)cc2)C(C)(C)C)cc1 [UB-180527]
5 | 10 to 100 | Cc1ncsc1-c1ccc(CNC(=O)[C@@H]2C[C@@H](O)CN2C(=O)[C@@H](NC(=O)CCOCCOCCOCCOCCNC(=O)c2ccc(Nc3ncc4c(n3)-c3ccc(Cl)cc3C(c3c(F)cccc3F)=NC4)cc2)C(C)(C)C)cc1 [UB-180531]
6 | 100 to 1000 | Cc1ncsc1-c1ccc(CNC(=O)[C@@H]2C[C@@H](O)CN2C(=O)[C@@H](NC(=O)COCCNC(=O)c2ccc(Nc3ncc4c(n3)-c3ccc(Cl)cc3C(c3c(F)cccc3F)=NC4)cc2)C(C)(C)C)cc1 [UB-180532]
7 | 100 to 1000 | Cc1ncsc1-c1ccc(CNC(=O)[C@@H]2C[C@@H](O)CN2C(=O)[C@@H](NC(=O)COCCOCCNC(=O)c2ccc(Nc3ncc4c(n3)-c3ccc(Cl)cc3C(c3c(F)cccc3F)=NC4)cc2)C(C)(C)C)cc1 [UB-180533]
8 | 100 to 1000 | Cc1ncsc1-c1ccc(CNC(=O)[C@@H]2C[C@@H](O)CN2C(=O)[C@@H](NC(=O)CCOCCOCCNC(=O)c2ccc(Nc3ncc4c(n3)-c3ccc(Cl)cc3C(c3c(F)cccc3F)=NC4)cc2)C(C)(C)C)cc1 [UB-180536]
9 | 100 to 1000 | Cc1ncsc1-c1ccc(CNC(=O)[C@@H]2C[C@@H](O)CN2C(=O)[C@@H](NC(=O)COCCCCNC(=O)c2ccc(Nc3ncc4c(n3)-c3ccc(Cl)cc3C(c3c(F)cccc3F)=NC4)cc2)C(C)(C)C)cc1 [UB-180558]
10 | 10 to 100 | CC[C@@H]1C(=O)N(C)c2cnc(Nc3ccc(C(=O)NCCOCCOCCNc4cccc5c4CN(C4CCC(=O)NC4=O)C5=O)cc3OC)nc2N1Cc1ccc(Br)cc1 (stereo partly shown) [UB-180568]
11 | 10 to 100 | CC[C@@H]1C(=O)N(C)c2cnc(Nc3ccc(C(=O)NCCOCCOCCOCCNc4cccc5c4CN(C4CCC(=O)NC4=O)C5=O)cc3OC)nc2N1Cc1ccc(Br)cc1 (stereo partly shown) [UB-180569]
12 | > 1000 | CC[C@@H]1C(=O)N(C)c2cnc(Nc3ccc(C(=O)NCC(=O)Nc4cccc5c4CN(C4CCC(=O)NC4=O)C5=O)cc3OC)nc2N1C1CCCC1 (stereo partly shown) [UB-180570]
13 | 100 to 1000 | CC[C@@H]1C(=O)N(C)c2cnc(Nc3ccc(C(=O)NC4(C(=O)Nc5cccc6c5CN(C5CCC(=O)NC5=O)C6=O)CC4)cc3OC)nc2N1C1CCCC1 (stereo partly shown) [UB-180571]
14 | 100 to 1000 | Cc1ncsc1-c1ccc(CNC(=O)[C@@H]2C[C@@H](O)CN2C(=O)[C@@H](NC(=O)CCOCCOCCOCCOCCNC(=O)[C@]2(Cc3cccc(Nc4nccs4)n3)CC[C@@H](Oc3cccc(Cl)c3F)CC2)C(C)(C)C)cc1 [UB-180576]
15 | > 1000 | Cc1ncsc1-c1ccc(CNC(=O)[C@@H]2C[C@@H](O)CN2C(=O)[C@@H](NC(=O)COCCNC(=O)[C@]2(Cc3cccc(Nc4nccs4)n3)CC[C@@H](Oc3cccc(Cl)c3F)CC2)C(C)(C)C)cc1 [UB-180578]
16 | 100 to 1000 | Cc1ncsc1-c1ccc(CNC(=O)[C@@H]2C[C@@H](O)CN2C(=O)[C@@H](NC(=O)COCCOCCOCCOCCNC(=O)[C@]2(Cc3cccc(Nc4nccs4)n3)CC[C@@H](Oc3cccc(Cl)c3F)CC2)C(C)(C)C)cc1 [UB-180580]

Row | EC50 [nM] | SMILES
17 | 100 to 1000 | Cc1ncsc1-c1ccc(CNC(=O)[C@@H]2C[C@@H](O)CN2C(=O)[C@@H](NC(=O)CCCNC(=O)[C@]2(Cc3cccc(Nc4nccs4)n3)CC[C@@H](Oc3cccc(Cl)c3F)CC2)C(C)(C)C)cc1 [UB-180583]
18 | 100 to 1000 | Cc1ncsc1-c1ccc(CNC(=O)[C@@H]2C[C@@H](O)CN2C(=O)[C@@H](NC(=O)COCCOCCOCCNC(=O)[C@]2(Cc3cccc(Nc4nccs4)n3)CC[C@@H](Oc3cccc(Cl)c3F)CC2)C(C)(C)C)cc1 [UB-180584]
19 | > 1000 | Cc1ncsc1-c1ccc(CNC(=O)[C@@H]2C[C@@H](O)CN2C(=O)[C@@H](NC(=O)COCCCNC(=O)[C@]2(Cc3cccc(Nc4nccs4)n3)CC[C@@H](Oc3cccc(Cl)c3F)CC2)C(C)(C)C)cc1 [UB-180585]
20 | > 1000 | Cc1ncsc1-c1ccc(CNC(=O)[C@@H]2C[C@@H](O)CN2C(=O)[C@@H](NC(=O)COCCOCCNC(=O)[C@]2(Cc3cccc(Nc4nccs4)n3)CC[C@@H](Oc3cccc(Cl)c3F)CC2)C(C)(C)C)cc1 [UB-180587]
21 | > 1000 | Cc1ncsc1-c1ccc(CNC(=O)[C@@H]2C[C@@H](O)CN2C(=O)[C@@H](NC(=O)COCCCCNC(=O)[C@]2(Cc3cccc(Nc4nccs4)n3)CC[C@@H](Oc3cccc(Cl)c3F)CC2)C(C)(C)C)cc1 [UB-180589]
22 | 100 to 1000 | CC[C@@H]1c2c(C#N)ncn2-c2cnc(Nc3ccc(C(=O)NC4CCN(CCCCC(=O)N[C@H](C(=O)N5C[C@H](O)C[C@H]5C(=O)NCc5ccc(-c6scnc6C)cc5)C(C)(C)C)CC4)cc3OC)nc2N1C1CCCC1 [UB-180591]
23 | 100 to 1000 | CC[C@@H]1c2c(C#N)ncn2-c2cnc(Nc3ccc(C(=O)NCC(=O)N[C@H](C(=O)N4C[C@H](O)C[C@H]4C(=O)NCc4ccc(-c5scnc5C)cc4)C(C)(C)C)cc3OC)nc2N1C1CCCC1 [UB-180592]
24 | 100 to 1000 | CC[C@@H]1c2c(C#N)ncn2-c2cnc(Nc3ccc(C(=O)NCCCNc4cccc5c4C(=O)N(C4CCC(=O)NC4=O)C5=O)cc3OC)nc2N1C1CCCC1 (stereo partly shown) [UB-180593]
25 | 10 to 100 | CC[C@@H]1C(=O)N(C)c2cnc(Nc3ccc(C(=O)NC4CCN(CCCCC(=O)Nc5cccc6c5CN(C5CCC(=O)NC5=O)C6=O)CC4)cc3OC)nc2N1C1CCCC1 (stereo partly shown) [UB-180596]
26 | > 1000 | CC[C@@H]1c2c(C#N)ncn2-c2cnc(Nc3ccc(C(=O)NC4CCN(CCCCCOCC(=O)N[C@H](C(=O)N5C[C@H](O)C[C@H]5C(=O)NCc5ccc(-c6scnc6C)cc5)C(C)(C)C)CC4)cc3OC)nc2N1C1CCCC1 [UB-180597]
27 | > 1000 | Cc1ncsc1-c1ccc(CNC(=O)[C@@H]2C[C@@H](O)CN2C(=O)[C@@H](NC(=O)CCOCCOCCNC(=O)[C@]2(Cc3cccc(Nc4nccs4)n3)CC[C@@H](Oc3cccc(Cl)c3F)CC2)C(C)(C)C)cc1 [UB-180599]
28 | 100 to 1000 | Cc1ncsc1-c1ccc(CNC(=O)[C@@H]2C[C@@H](O)CN2C(=O)[C@@H](NC(=O)CCOCCCOCCOCCNC(=O)[C@]2(Cc3cccc(Nc4nccs4)n3)CC[C@@H](Oc3cccc(Cl)c3F)CC2)C(C)(C)C)cc1 [UB-180600]
29 | 10 to 100 | CC[C@@H]1c2c(C#N)ncn2-c2cnc(Nc3ccc(C(=O)NCCNc4cccc5c4C(=O)N(C4CCC(=O)NC4=O)C5=O)cc3OC)nc2N1C1CCCC1 (stereo partly shown) [UB-180607]
30 | 100 to 1000 | CC[C@@H]1c2c(C#N)ncn2-c2cnc(Nc3ccc(C(=O)NCCNc4cccc5c4CN(C4CCC(=O)NC4=O)C5=O)cc3OC)nc2N1C1CCCC1 (stereo partly shown) [UB-180608]
31 | 10 to 100 | Cc1ncsc1-c1ccc(CNC(=O)[C@@H]2C[C@@H](O)CN2C(=O)[C@@H](NC(=O)CCOCCCOCCOCCNC(=O)c2ccc(Nc3ncc4c(n3)-c3ccc(Cl)cc3C(c3c(F)cccc3F)=NC4)cc2)C(C)(C)C)cc1 [UB-180609]
